Experimental data published in patent publication US11446300B2 (Alexion Pharmaceuticals, Inc., priority 2015, dated 2022).

Columns and labels:
IL4 signaling = experiment: Phase I study, whole blood assay of IL4 receptor signaling; assay type: in vivo, human; details: extrapolated from PK/PD fit of all data
Procedure: (§1) Pharmacokinetics (“PK”), pharmacodynamics (“PD”), and safety were monitored. Response was assessed by standard criteria. The level of inhibition of SYK and JAK was determined using a variety of whole blood assays measuring signaling via receptors for the B-cell antigen, IL2, IL4, IL6, and GM-CSF. Serum markers of tumor burden, including CCL3, CCL4, and other markers of inflammation (02M and CRP), were also being measured.

JAK2 = molecular target: T1, JAK2 (Homo sapiens, UniProt O60674); experiment: Phase I study, selectivity of signaling inhibition; details: in vivo
T1 construct: endogenous in cells; host or cells: whole blood of dosed patients
T1 sequence (O60674 whole entry): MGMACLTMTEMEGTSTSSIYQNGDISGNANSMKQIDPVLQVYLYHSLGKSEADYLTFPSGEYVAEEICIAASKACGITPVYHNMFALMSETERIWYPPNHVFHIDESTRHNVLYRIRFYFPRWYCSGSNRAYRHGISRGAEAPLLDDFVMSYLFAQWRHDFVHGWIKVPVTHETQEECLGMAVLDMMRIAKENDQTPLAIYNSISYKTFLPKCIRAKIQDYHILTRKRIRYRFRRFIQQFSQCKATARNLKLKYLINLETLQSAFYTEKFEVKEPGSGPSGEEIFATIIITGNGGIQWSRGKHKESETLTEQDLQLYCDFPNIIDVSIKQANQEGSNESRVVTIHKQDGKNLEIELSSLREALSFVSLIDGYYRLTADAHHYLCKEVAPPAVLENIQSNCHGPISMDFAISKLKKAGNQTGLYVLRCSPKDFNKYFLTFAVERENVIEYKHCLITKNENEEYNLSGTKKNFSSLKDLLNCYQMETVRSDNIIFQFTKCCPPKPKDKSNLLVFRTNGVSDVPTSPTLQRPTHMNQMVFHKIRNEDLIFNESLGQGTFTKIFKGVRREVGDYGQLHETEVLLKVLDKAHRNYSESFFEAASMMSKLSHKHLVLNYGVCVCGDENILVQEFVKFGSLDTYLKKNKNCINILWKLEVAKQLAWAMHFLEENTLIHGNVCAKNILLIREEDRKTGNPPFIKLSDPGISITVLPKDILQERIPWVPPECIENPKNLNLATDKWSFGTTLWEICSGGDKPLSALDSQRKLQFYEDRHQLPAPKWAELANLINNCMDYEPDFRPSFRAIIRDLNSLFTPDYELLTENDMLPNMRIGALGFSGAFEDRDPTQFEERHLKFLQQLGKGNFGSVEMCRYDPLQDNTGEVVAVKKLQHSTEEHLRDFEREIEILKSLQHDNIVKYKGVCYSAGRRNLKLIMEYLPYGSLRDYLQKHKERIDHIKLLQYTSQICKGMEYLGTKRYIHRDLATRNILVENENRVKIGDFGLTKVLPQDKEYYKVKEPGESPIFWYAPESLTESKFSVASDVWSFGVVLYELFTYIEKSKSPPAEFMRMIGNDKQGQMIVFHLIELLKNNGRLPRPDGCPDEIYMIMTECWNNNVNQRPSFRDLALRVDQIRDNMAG
Procedure: as §1

Q: How did the inhibition at 15 mg (IL4 signaling; Homo sapiens, 15 mg/day, read-out: % Inh. IL4 (Cmin − Cmax)) turn out when `CCS(=O)(=O)N1CCN(c2ccc(Nc3ncc(C(N)=O)c(NC4CC4)n3)cc2)CC1` [Cerdulatinib, 4-(cyclopropylamino)-2-(4-(4-(ethylsulfonyl)piperazin-1-yl)phenylamino)pyrimidine-5-carboxamide] was run?
A: 16 to 42%

Q: And the inhibition at 30 mg (IL4 signaling; Homo sapiens, 30 mg/day, read-out: % Inh. IL4 (Cmin − Cmax))?
A: 26 to 57%

Q: What about the inhibition at 100 mg (IL4 signaling; Homo sapiens, 100 mg/day (one patient), read-out: % Inh. IL4 (Cmin − Cmax)) of the same compound?
A: 41 to 72%

Q: What about the “% Inh. IL4 (Cmin − Cmax)” value (IL4 signaling; printed on the 40 mg/day line (45-65 mg/day lines empty)) of the same compound?
A: 63 − 78%

Q: What about the “inhibition of JAK2” value (JAK2) of the same compound?
A: no inhibition
